Laboratory results published in publication PMC4472571 (Journal of neurochemistry, 2015).

Columns and labels:
Test in all cases: two-electrode voltage clamp, CFTR current in oocytes
Type in all cases: cell-based
rhoMOR263-2 = target: T1, rhoMOR263-2 (Mus musculus, UniProt Q9EPG4); conditions: agonist; 30 μM
T1 sequence (Q9EPG4 1-317): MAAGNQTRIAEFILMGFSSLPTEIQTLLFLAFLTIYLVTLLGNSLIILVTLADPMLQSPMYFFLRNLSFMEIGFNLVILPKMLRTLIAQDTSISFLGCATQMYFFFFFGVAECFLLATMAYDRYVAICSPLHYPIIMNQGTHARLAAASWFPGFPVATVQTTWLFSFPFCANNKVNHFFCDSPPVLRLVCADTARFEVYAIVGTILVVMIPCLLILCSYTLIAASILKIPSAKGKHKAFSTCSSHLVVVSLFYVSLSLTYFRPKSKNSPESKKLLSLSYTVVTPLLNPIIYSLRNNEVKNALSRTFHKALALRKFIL

MOR263-3 [1] = target: T2, MOR263-3 (Mus musculus, UniProt Q8VFQ2); conditions: agonist; 30 μM
T2 sequence (Q8VFQ2 1-330): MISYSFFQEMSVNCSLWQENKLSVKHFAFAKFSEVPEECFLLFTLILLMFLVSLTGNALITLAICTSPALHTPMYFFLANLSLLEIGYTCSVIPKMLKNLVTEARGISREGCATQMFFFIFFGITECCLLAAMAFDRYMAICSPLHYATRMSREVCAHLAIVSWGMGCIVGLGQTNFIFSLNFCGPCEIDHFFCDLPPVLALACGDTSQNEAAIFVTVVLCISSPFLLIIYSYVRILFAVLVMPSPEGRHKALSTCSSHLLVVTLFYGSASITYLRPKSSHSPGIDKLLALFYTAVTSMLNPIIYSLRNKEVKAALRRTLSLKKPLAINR

MOR263-3 [2] = target: T2, MOR263-3

| EC50 (MOR263-3 [2]) [µM] | SMILES | two-electrode voltage clamp, CFTR current in oocytes (rhoMOR263-2) | two-electrode voltage clamp, CFTR current in oocytes (MOR263-3 [1]) |
| --- | --- | --- | --- |
| – | CCCCCC/C=C/C=C/C=O [trans,trans-2,4-undecadienal] | MOR263-2 responded well to trans,trans-2,4-decadienal, trans,trans-2,4-undecadienal | – |
| – | CCCC/C=C/C=C/C=O [trans,trans-2,4-nonadienal] | – | MOR263-3 responded well to trans,trans-2,4-nonadienal, trans,trans-2,4-decadienal |
| 21 ± 6 | CCC/C=C/C=C/C=O [trans,trans-2,4-octadienal] | – | – |
| – | CCCCCCC/C=C/C=O [trans-2-decenal] | MOR263-2 responded well to trans,trans-2,4-decadienal, trans,trans-2,4-undecadienal, trans-2-decenal | – |
| – | CCCCC/C=C/C=O [trans-2-octenal] | – | MOR263-3 responded well to trans,trans-2,4-nonadienal, trans,trans-2,4-decadienal, trans-2-octenal |
| – | CCCCC/C=C/C=C/C=O [trans,trans-2,4-decadienal] | MOR263-2 responded well to trans,trans-2,4-decadienal | MOR263-3 responded well to trans,trans-2,4-nonadienal, trans,trans-2,4-decadienal |
